Reference: US20230014907A1, “INHIBITORS OF APOL1 AND METHODS OF USING SAME” (Vertex Pharmaceuticals Incorporated, priority 2020, published 2023)
Structures can show the parent of a compound that is named as a salt.

Experiments:
G1 APOL1 = molecular target: T1, G1 APOL1 (Homo sapiens, UniProt O14791, I384M/S342G); experiment: Acute APOL1 Thallium Assay with Inducible Stable Clones of HEK 293 Cells; format: cell-based; conditions: HEK 293 inducible stable clones, G1 APOL1; read-out: Thallium Assay (IC50)
T1 construct: expressed in transfected cells
T1 sequence (O14791 28-398 S342G/I384M): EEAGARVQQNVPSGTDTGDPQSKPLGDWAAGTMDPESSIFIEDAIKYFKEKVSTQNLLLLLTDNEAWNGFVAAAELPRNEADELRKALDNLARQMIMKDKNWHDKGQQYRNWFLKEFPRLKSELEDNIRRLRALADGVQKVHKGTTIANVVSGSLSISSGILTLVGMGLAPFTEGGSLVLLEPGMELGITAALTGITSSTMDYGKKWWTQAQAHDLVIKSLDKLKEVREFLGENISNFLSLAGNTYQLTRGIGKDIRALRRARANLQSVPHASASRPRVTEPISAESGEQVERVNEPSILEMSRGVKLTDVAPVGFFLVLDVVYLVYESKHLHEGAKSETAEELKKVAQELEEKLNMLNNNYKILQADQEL
Procedure, shortened: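 Pore activity was read as the fluorescence increase from Tl+ entering cells loaded with an AM-ester thallium indicator dye. The cells were tetracycline-inducible HEK293 T-Rex expressing G1 APOL1 (clone DC3.25), induced when plated at 26000 per well and incubated at 37° C.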

APOL1 G1 Protein = molecular target: T2, APOL1 G1 Protein (Homo sapiens, UniProt O14791, I384M/S342G); experiment: Trypanosoma brucei brucei Lysis Assay Using APOL1 Recombinant Protein (AlamarBlue viability); format: cell-based; conditions: read-out: Trypanosomal Assay (IC50)
T2 sequence (O14791 28-398 S342G/I384M): T1 sequence (O14791 28-398 S342G/I384M)
Text: Trypanosoma brucei brucei is a blood stream parasite to which human, gorillas and baboon are immune due to the presence of the APOL1 protein in their HDL particles. The protein is uptaken by the parasite via the TbHpHb receptor located in its flagellar pocket and is bonded by the Hpr protein contained in the HDL particles which triggers the receptor endocytosis by the parasite.
Following endocytosis, the formed vesicle containing the HDL particle matures from early to late endosome, and subsequently to lysosome. The concomitant pH change in the lumen of the vesicle triggers the insertion of the APOL1 protein into the membrane of the late endosome/lysosome and hereby triggers lysosomal membrane permeabilization and as a further downstream event, trypanosome lysis. Trypanosoma brucei brucei is sensitive to lysis by all three APOL1 variants (G0, G1, and G2).
The Trypanosoma brucei brucei lysis assay is a lysis assay of the parasite using recombinant APOL1 protein variant followed by a fluorescent detection method of viability by the addition of AlamarBlue reagent to the assay well, a general metabolic redox indicator (AlamarBlue assay).
Briefly, the AlamarBlue active compound, the resazurin, a blue, water soluble, non-toxic and cell permeable molecule, which can be followed by absorbance, is reduced by various metabolic pathways into resorufin, a red compound which can be followed by either absorbance or fluorescence. The assay allows the calculation of the percent viability (percent of living Trypanosomes remaining in each well) at the end of a lysis relative to the untreated condition by interpolation of fluorescent values (FLU) on a standard curve with a known amount of seeded trypanosome/well.
Trypanosoma brucei brucei (ATCC, Cat. No. PRA-382) • Lister 427 VSG 221 bloodstream form.
Thaw/Expansion Media (ATCC Medium 2834 Modified HMI-9 Medium)
Assay Media (No Phenol Red/No FBS): Make on Day of Use
Hypoxanthine Stock (100×)-9 (10×)
Equipment • E1-Clip Tip pipette 12 channel adjustable 2-125 μL, Cat. No. 4672070BT • ThermoFisher MultiDrop 384, Cat. No. 5840300 • Multidrop • Agilent Bravo, Cat. No. G5409A • Bravo • SpectraMax M5
Trypanosoma brucei brucei Culture
Step 2, Day 4 • Centrifuge at 800×g for 5 minutes at room temperature. • Resuspend in 1 mL media. • Make a 1:25 fold dilution (10 μL/240 μL media). • Count on a hemocytometer (after adding parasites). • Let sit for 1-2 minutes for the parasites to settle. • Count should be approximately 100 viable motile parasites/16 grid or approximately 25×10^6 parasites/flask. • Passage the parasites by adding 1×10^6 parasites/T75 flask in 20 mL media. • Passage the parasites by adding 2.33×10^6 parasites/T175 flask in 46.6 mL media. • For every T75 flask should make enough for approximately 1.5×384 well assay plates. • For every T175 flask should make enough for approximately 3.8×384 well assay plates.
Step 3, Day 6 • Centrifuge at 800×g for 5 minutes. • Resuspend in 3 mL assay media (No phenol red, no FBS) per 75 starting flask. • Resuspend in 7 mL assay media (No phenol red, no FBS) per 175 flask • Make a 1:25 fold dilution. • Count by hemocytometer. • Every T75 flask set up should have approximately 75×10^6 parasites/flask (verify doubling time=8.7 hours±1 hour). • Every T175 flask set up should have approximately 175×10^6 parasites/flask (verify doubling time=8.7 hours±1 hour). • Require 46×10^6 parasites per 384 well plate (at 120,000 parasites per well). […]

Compound | IC50 (G1 APOL1) | IC50 (APOL1 G1 Protein)
CC(C)C[C@@H](CO)NC(=O)CCc1c(-c2ccc(F)cc2)[nH]c2c(F)cc(F)cc12 [Compound 158] | > 1000 nM | > 1000 nM
O=C(CCc1c(-c2ccc(F)cc2)[nH]c2c(F)cc(F)cc12)Nc1nccs1 [Compound 167] | > 1000 nM | > 1000 nM
C[C@H](NC(=O)CCc1c(-c2ccc(F)cc2)[nH]c2ccc(F)cc12)C(N)=O [Compound 61] | > 1000 nM | > 1000 nM
Cn1ccc(NC(=O)CCc2c(-c3ccc(F)cc3)[nH]c3c(F)cc(F)cc23)n1 [Compound 163] | > 1000 nM | > 1000 nM
CC(CO)NC(=O)CCc1c(-c2ccc(F)cc2)[nH]c2ccc(F)cc12 (racemic) [Compound 9] | < 250 nM | < 250 nM
O=C(CCc1c(-c2ccc(F)cc2)[nH]c2c(F)cc(F)cc12)NCc1ncc[nH]1 [Compound 134] | > 1000 nM | > 1000 nM
O=C(CCc1c(-c2ccc(F)cc2)[nH]c2c(F)cc(F)cc12)NC1(CO)COC1 [Compound 126] | 250 to 1000 nM | 250 to 1000 nM
NC(=O)C(CO)NC(=O)CCc1c(-c2ccc(F)cc2)[nH]c2ccc(F)cc12 (stereo not shown) [Compound 36] | > 1000 nM | > 1000 nM
O=C(CCc1c(-c2ccc(F)cc2)[nH]c2ccc(F)cc12)N1CCCC(O)C1 (stereo not shown) [Compound 81] | > 1000 nM | > 1000 nM
CC(CO)(CO)NC(=O)CCc1c(-c2ccc(F)cc2)[nH]c2ccc(F)cc12 [Compound 18] | 250 to 1000 nM | 250 to 1000 nM
CC1(C)COC(=O)C1NC(=O)CCc1c(-c2ccc(F)cc2)[nH]c2c(F)cc(F)cc12 (stereo not shown) [Compound 193] | > 1000 nM | > 1000 nM
CCC(C)(O)CNC(=O)CCc1c(-c2ccc(F)cc2)[nH]c2ccc(F)cc12 (stereo not shown) [Compound 74] | > 1000 nM | > 1000 nM
OCCc1c(-c2ccc(F)cc2)[nH]c2c(F)cc(F)cc12 [Compound 433, 2-[5,7-difluoro-2-(4-fluorophenyl)-1H-indol-3-yl]ethanol] | < 250 nM | < 250 nM
O=C(CCc1c(-c2ccc(F)cc2)[nH]c2c(F)cc(F)cc12)NC1(C(F)(F)F)CC1 [Compound 129] | > 1000 nM | > 1000 nM
O=C(CCc1c(-c2ccc(F)cc2)[nH]c2c(F)cc(F)cc12)Nc1cccc(=O)[nH]1 [Compound 170] | > 1000 nM | > 1000 nM
CC(C)(C)OC(=O)N1C[C@H](NC(=O)CCc2c(-c3ccc(F)cc3)[nH]c3ccc(F)cc23)[C@@H](O)C1 [Compound 76] | > 1000 nM | > 1000 nM
CC(O)C(C)NC(=O)CCc1c(-c2ccc(F)cc2)[nH]c2ccc(F)cc12 (mixture of isomers) [Compound 35] | > 1000 nM | > 1000 nM
O=C(CCc1c(-c2ccc(F)cc2)[nH]c2c(F)cc(F)cc12)N[C@H]1CC[C@@H](O)C1 [Compound 179] | > 1000 nM | > 1000 nM
O=C(CCc1c(-c2ccc(F)cc2)[nH]c2c(F)cc(F)cc12)NC(CO)(CO)CO [Compound 95] | 250 to 1000 nM | 250 to 1000 nM
O=C(CCc1c(-c2ccc(F)cc2)[nH]c2ccc(F)cc12)NC1CC1c1ccc(F)cc1 (stereo not shown) [Compound 44] | > 1000 nM | > 1000 nM
O=C(CCc1c(-c2ccc(F)cc2)[nH]c2ccc(F)cc12)N[C@H]1CNC[C@@H]1O [Compound 2, 3-[5-fluoro-2-(4-fluorophenyl)-1H-indol-3-yl]-N-[(3S,4S)-4-hydroxypyrrolidin-3-yl]propanamide hydrochloride] | > 1000 nM | > 1000 nM

Compound | IC50 (G1 APOL1) | IC50 (APOL1 G1 Protein)
C[C@H](CO)NC(=O)CCc1c(-c2ccc(F)cc2)[nH]c2ccc(F)cc12 [Compound 8] | < 250 nM | < 250 nM
NC1CCCN(C(=O)CCc2c(-c3ccc(F)cc3)[nH]c3ccc(F)cc23)C1 (stereo not shown) [Compound 56] | > 1000 nM | > 1000 nM
O=C(CCc1c(-c2ccc(F)cc2)[nH]c2ccc(F)cc12)NCC1(O)CCC1 [Compound 64] | > 1000 nM | > 1000 nM
O=C(CCc1c(-c2ccc(F)cc2)[nH]c2ccc(F)cc12)NC1(c2ccccc2)CC1 [Compound 65] | > 1000 nM | > 1000 nM
NC(=O)CNC(=O)CCc1c(-c2ccc(F)cc2)[nH]c2c(F)cc(F)cc12 [Compound 111] | > 1000 nM | > 1000 nM
O=C(CCc1c(-c2ccc(F)cc2)[nH]c2ccc(F)cc12)NC1CONC1=O (stereo not shown) [Compound 63] | > 1000 nM | > 1000 nM
CC1(N)CCN(C(=O)CCc2c(-c3ccc(F)cc3)[nH]c3ccc(F)cc23)C1 (racemic) [Compound 67] | > 1000 nM | > 1000 nM
CC(C)C(CO)NC(=O)CCc1c(-c2ccc(F)cc2)[nH]c2ccc(F)cc12 (stereo not shown) [Compound 75] | > 1000 nM | > 1000 nM
CS(=O)(=O)NC(=O)CCc1c(-c2ccc(F)cc2)[nH]c2c(F)cc(F)cc12 [Compound 93, 3-[5,7-difluoro-2-(4-fluorophenyl)-1H-indol-3-yl]-N-methylsulfonyl-propanamide] | > 1000 nM | > 1000 nM
O=C(CCc1c(-c2ccc(F)cc2)[nH]c2ccc(F)cc12)NCC1(O)CC1 [Compound 82] | > 1000 nM | > 1000 nM
COCCN(C)C(=O)CCc1c(-c2ccc(F)cc2)[nH]c2c(F)cc(F)cc12 [Compound 156] | > 1000 nM | > 1000 nM
NC1CCC(NC(=O)CCc2c(-c3ccc(F)cc3)[nH]c3ccc(F)cc23)C1 (stereo not shown) [Compound 7] | > 1000 nM | > 1000 nM
O=C(NCCCc1c(-c2ccc(F)cc2)[nH]c2ccc(F)cc12)C(F)F [Compound 506] | 250 to 1000 nM | 250 to 1000 nM
CC(C)(C)OC(=O)NC1CN(C(=O)CCc2c(-c3ccc(F)cc3)[nH]c3ccc(F)cc23)C1 [Compound 52] | > 1000 nM | > 1000 nM
Cc1nc(NC(=O)CCc2c(-c3ccc(F)cc3)[nH]c3c(F)cc(F)cc23)no1 [Compound 92, 3-[5,7-difluoro-2-(4-fluorophenyl)-1H-indol-3-yl]-N-(5-methyl-1,2,4-oxadiazol-3-yl)propanamide] | > 1000 nM | > 1000 nM
CC(C)(NC(=O)CCc1c(-c2ccc(F)cc2)[nH]c2c(F)cc(F)cc12)C(F)(F)F [Compound 182] | > 1000 nM | > 1000 nM
O=C(CCc1c(-c2ccc(F)cc2)[nH]c2c(F)cc(F)cc12)N[C@H]1COC[C@@H]1O [Compound 181] | > 1000 nM | > 1000 nM
O=C(CCc1c(-c2ccc(F)cc2)[nH]c2c(F)cc(F)cc12)Nc1nc(C(F)(F)F)co1 [Compound 171] | > 1000 nM | > 1000 nM
CC1(NC(=O)CCc2c(-c3ccc(F)cc3)[nH]c3c(F)cc(F)cc23)CCOC1 (racemic) [Compound 152] | > 1000 nM | > 1000 nM
CC(=O)NCCCc1c(-c2ccc(F)cc2)[nH]c2c(Cl)cccc12 [Compound 508, N-[3-[7-chloro-2-(4-fluorophenyl)-1H-indol-3-yl]propyl]acetamide] | 250 to 1000 nM | 250 to 1000 nM
